Reference: US20110230403A1, “GLYCOSIDE DERIVATIVES AND USES THEREOF” (NOVARTIS AG, priority 2008, published 2011)

Key:
human SGLT1 = target: T1, human SGLT1 (Homo sapiens, UniProt P13866); assay: hSGLT1 assay: analogous [14C]-AMG uptake in CHO-K1 or HEK293 cells expressing hSGLT1; assay type: cell-based; settings: n = 1-4, hSGLT1-transfected cells
T1 construct: expressed in transfected cells; host or cells: CHO-K1 or HEK293 cells
T1 sequence (P13866 1-664): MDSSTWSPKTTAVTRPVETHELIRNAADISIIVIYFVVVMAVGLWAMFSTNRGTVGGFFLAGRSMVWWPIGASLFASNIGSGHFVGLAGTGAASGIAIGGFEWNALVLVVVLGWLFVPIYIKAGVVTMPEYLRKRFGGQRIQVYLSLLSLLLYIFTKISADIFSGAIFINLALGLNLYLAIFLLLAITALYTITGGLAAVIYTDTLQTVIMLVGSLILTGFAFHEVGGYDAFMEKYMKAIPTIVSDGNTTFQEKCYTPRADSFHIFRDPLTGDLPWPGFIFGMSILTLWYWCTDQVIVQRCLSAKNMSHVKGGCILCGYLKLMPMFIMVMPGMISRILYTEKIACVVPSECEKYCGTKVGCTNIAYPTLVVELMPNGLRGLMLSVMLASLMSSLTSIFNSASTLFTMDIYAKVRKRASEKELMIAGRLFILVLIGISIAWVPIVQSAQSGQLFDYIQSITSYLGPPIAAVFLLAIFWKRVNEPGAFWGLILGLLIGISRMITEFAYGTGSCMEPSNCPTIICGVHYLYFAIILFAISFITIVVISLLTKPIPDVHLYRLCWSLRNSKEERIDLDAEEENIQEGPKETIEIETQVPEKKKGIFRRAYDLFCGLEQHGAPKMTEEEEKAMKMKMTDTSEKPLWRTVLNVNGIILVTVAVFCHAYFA
Description: To determine human SGLT1 inhibitory activity, an analogous test was set up in which the cDNA for hSGLTI (Genbank Ace. No. NM000343) instead of hSGLT2 cDNA is expressed in CHO-K1 or HEK293 cells. The uptake assay buffer in the case of the hSGLT1 assay contains 10 mM HEPES, 5 mM Tris, 140 mM NaCl, 2 mM KCl, 1 mM CaCl2, and 1 mM MgCl2, pH 7.4 containing 0.5 mM of α-methyl-D-glucopyranoside (AMG), 10 μM of [^14C]-α-methyl-D-glucopyranoside and different inhibitor concentrations.

[1] = target: T2, human sodium glucose cotransporter 2 (Homo sapiens, UniProt P31639); assay: SGLT-2 assay: 14C-AMG uptake in CHO-hSGLT2 or HEK293-hSGLT2 cells; assay type: cell-based; settings: n = 1-4, hSGLT2-transfected cells, read-out: SGLT2 IC50 nM (n = 1-4)
T2 construct: expressed in transfected cells; host or cells: CHO-K1 (ATCC CCL-61) or HEK293 (ATCC CRL-1573), stably transfected with pZeoSV expression vector
T2 sequence (P31639 1-672): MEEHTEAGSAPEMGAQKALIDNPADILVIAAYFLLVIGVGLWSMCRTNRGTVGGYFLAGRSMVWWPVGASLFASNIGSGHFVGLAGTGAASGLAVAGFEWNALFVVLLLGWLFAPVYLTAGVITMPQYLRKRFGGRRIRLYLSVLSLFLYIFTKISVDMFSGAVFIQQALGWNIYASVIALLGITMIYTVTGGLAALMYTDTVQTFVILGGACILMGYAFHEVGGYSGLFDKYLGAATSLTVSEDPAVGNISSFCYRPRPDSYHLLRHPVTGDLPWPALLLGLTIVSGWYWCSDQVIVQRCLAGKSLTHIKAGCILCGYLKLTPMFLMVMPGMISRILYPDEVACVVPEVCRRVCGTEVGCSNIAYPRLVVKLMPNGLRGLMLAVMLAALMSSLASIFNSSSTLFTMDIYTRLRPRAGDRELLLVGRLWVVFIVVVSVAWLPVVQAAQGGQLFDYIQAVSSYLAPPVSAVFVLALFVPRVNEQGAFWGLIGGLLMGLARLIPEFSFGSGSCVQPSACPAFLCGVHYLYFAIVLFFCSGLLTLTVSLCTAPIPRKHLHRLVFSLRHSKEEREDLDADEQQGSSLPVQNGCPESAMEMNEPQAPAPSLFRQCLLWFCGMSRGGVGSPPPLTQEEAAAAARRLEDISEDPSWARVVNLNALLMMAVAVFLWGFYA
Description: These cell lines transport 14 C-labelled alpha-methyl-glucopyranoside (14 C-AMG, Amersham) into the interior of the cell in sodium-dependent manner.
The SGLT-2 assay is carried out as follows: CHO-hSGLT2 cells are cultivated in Ham's F12 Medium (BioWhittaker) with 10% foetal calf serum and 250 μg/mL zeocin (Invitrogen), and HEK293-hSGLT2 cells are cultivated in DMEM medium with 10% foetal calf serum and 250 μg/mL zeocin (Invitrogen). The cells are detached from the culture flasks by washing twice with PBS and subsequently treating with trypsin/EDTA. After the addition of cell culture medium the cells are centrifuged, resuspended in culture medium and counted in a Casy cell counter. Then 40,000 cells per well are seeded into a white, 96-well plate coated with poly-D-Iysine and incubated overnight at 37° C., 5% CO2. The cells are washenwice with 250 μl of assay buffer (Hanks Balanced Salt Solution, 137 mM NaCl, 5.4 mM KCl, 2.8 mM CaCl2, 1.2 mM MgSO4 and 10 mM HEPES (pH 7.4), 50 μg/mL of gentamycin). 250 μl of assay buffer and 5 μl of test compound are then added to each well and the plate is incubated for a further 15 minutes in the incubator. 5 μl of 10% DMSO are used as the negative control. The reaction is started by adding 5 μl of 14 C-AMG (0.05 μCi) to each well. After 2 hours' incubation at 37° C., 5% CO2, the cells are washed again with 250 μl of PBS (200C) and then lysed by the addition of 25 μl of 0.1 N NaOH (5 min. at 37° C.). 200 μl of MicroScint20 (Packard) are added to each well and incubation is continued for a further 20 min at 37° C. After this incubation the radioactivity of the 14 C-AMG absorbed is measured in a Topcount (Packard) using a 14 C scintillation program.

For CCOc1ccc(Cc2cc([C@@H]3O[C@H](CSc4cc(C(=O)N5CCC5)ccc4F)[C@@H](O)[C@H](O)[C@H]3O)ccc2Cl)cc1 [Example 37, Azetidin-1-yl-(3-{(2S,3S,4R,5R,6S)-6-[4-chloro-3-(4-ethoxy-benzyl)-phenyl]-3,4,5-trihydroxy-tetrahydro-pyran-2-ylmethylsulfanyl}-4-fluoro-phenyl)-methanone], the IC50 (human SGLT1) was less than 50 nM and the IC50 [1] was 3 nM.
Work on CCOc1ccc(Cc2cc([C@@H]3O[C@H](CSc4cccc(C(=O)NC)c4)[C@@H](O)[C@H](O)[C@H]3O)ccc2Cl)cc1 [Example 40, 3-{(2S,3S,4R,5R,6S)-6-[4-Chloro-3-(4-ethoxy-benzyl)-phenyl]-3,4,5-trihydroxy-tetrahydro-pyran-2-ylmethylsulfanyl}-N-methyl-benzamide] yielded an IC50 (human SGLT1) of less than 50 nM and an IC50 [1] of 13 nM.
CCOc1ccc(Cc2cc([C@@H]3O[C@H](CSc4cccc(C(=O)N5CCCC5)c4)[C@@H](O)[C@H](O)[C@H]3O)ccc2Cl)cc1 [Example 47, (3-{(2S,3S,4R,5R,6S)-6-[4-Chloro-3-(4-ethoxy-benzyl)-phenyl]-3,4,5-trihydroxy-tetrahydro-pyran-2-ylmethylsulfanyl}-phenyl)-pyrrolidin-1 yl-methanone] gave an IC50 (human SGLT1) of less than 50 nM and an IC50 [1] of 14 nM.
Work on CCOc1ccc(Cc2cc([C@@H]3O[C@H](CSc4cccc(C(=O)N(C)C)c4)[C@@H](O)[C@H](O)[C@H]3O)ccc2Cl)cc1 [Example 50, 3-{(2S,3S,4R,5R,6S)-6-[4-Chloro-3-(4-ethoxy-benzyl)-phenyl]-3,4,5-trihydroxy-tetrahydro-pyran-2-ylmethylsulfanyl}-N,N-dimethyl-benzamide] yielded an IC50 (human SGLT1) of less than 50 nM and an IC50 [1] of 8 nM.
In the case of CCOc1ccc(Cc2cc([C@@H]3O[C@H](CSc4cccc(C(N)=O)c4)[C@@H](O)[C@H](O)[C@H]3O)ccc2Cl)cc1 [Example 78, 3-{(2S,3S,4R,5R,6S)-6-[4-Chloro-3-(4-ethoxy-benzyl)-phenyl]-3,4,5-trihydroxy-tetrahydro-pyran-2-ylmethylsulfanyl}-benzamide], the IC50 (human SGLT1) is reported as less than 100 nM and the IC50 [1] is reported as 42 nM.
Work on CCOc1ccc(Cc2cc([C@@H]3O[C@H](CSc4cccc(NC(C)=O)c4)[C@@H](O)[C@H](O)[C@H]3O)ccc2Cl)cc1 [Example 80, N-(3-{(2S,3S,4R,5R,6S)-6-[4-Chloro-3-(4-ethoxy-benzyl)-phenyl]-3,4,5-trihydroxy-tetrahydro-pyran-2-ylmethylsulfanyl}-phenyl)-acetamide] yielded an IC50 (human SGLT1) of less than 100 nM and an IC50 [1] of 13 nM.
